Reference: ChEMBL document CHEMBL3991601, “The target landscape of clinical kinase drugs” (Science, 2017)
Activity calls are given as the source filed them. For most assays here, no stated cut-off is given here; in the data, actives have a measured Kd and inactives only a lower limit.

Key:
[1] = biological target: LIM domain kinase 2 (Homo sapiens, UniProt P53671)
[2] = biological target: Ribosomal protein S6 kinase alpha-4 (Homo sapiens, UniProt O75676)
[3] = biological target: Mitogen-activated protein kinase 8 (Homo sapiens, UniProt P45983)
Mitogen-activated protein kinase 8, sequence (P45983 whole entry): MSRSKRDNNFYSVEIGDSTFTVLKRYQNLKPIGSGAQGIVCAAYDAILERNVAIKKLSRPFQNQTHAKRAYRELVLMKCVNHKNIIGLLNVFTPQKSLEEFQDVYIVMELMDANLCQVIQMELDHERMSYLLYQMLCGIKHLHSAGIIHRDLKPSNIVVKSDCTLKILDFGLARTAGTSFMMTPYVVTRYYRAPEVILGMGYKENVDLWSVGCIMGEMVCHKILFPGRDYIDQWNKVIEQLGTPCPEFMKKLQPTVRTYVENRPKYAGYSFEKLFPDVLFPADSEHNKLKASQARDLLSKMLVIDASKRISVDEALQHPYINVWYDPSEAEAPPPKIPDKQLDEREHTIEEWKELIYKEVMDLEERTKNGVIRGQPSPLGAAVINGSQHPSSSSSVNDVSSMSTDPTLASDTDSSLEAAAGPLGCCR

[4] = biological target: T1, Serine/threonine-protein kinase Chk1 (Homo sapiens, UniProt O14757)
T1 sequence (O14757 whole entry): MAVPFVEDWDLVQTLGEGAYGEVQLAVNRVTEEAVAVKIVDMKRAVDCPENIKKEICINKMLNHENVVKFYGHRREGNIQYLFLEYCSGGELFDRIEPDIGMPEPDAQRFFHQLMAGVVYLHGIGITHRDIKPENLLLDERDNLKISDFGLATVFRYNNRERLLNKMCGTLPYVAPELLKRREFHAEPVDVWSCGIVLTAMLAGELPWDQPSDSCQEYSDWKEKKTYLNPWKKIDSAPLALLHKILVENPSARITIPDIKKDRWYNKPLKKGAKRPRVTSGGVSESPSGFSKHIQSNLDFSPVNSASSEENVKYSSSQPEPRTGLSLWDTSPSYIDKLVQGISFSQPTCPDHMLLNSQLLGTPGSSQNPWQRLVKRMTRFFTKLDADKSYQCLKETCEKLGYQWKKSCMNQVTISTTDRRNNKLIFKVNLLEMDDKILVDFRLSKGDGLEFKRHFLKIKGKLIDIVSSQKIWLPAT

[5] = biological target: Cyclin-dependent kinase 13 (Homo sapiens, UniProt Q14004)
[6] = biological target: RAC-gamma serine/threonine-protein kinase (Homo sapiens, UniProt Q9Y243)
RAC-gamma serine/threonine-protein kinase, sequence (Q9Y243 whole entry): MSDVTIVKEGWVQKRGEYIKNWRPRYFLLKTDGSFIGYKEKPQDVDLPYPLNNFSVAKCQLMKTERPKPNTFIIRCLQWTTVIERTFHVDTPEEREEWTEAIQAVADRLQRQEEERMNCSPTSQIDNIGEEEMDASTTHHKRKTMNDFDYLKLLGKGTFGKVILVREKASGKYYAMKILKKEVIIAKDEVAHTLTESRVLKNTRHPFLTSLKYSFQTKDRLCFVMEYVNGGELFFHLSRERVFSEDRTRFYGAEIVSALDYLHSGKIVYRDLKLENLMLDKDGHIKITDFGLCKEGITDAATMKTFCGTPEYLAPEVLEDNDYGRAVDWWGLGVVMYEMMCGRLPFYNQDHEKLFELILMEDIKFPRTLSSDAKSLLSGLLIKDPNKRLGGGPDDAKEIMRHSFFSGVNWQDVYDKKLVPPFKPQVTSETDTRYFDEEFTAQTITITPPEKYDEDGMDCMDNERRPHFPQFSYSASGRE

[7] = biological target: Inosine-5'-monophosphate dehydrogenase 2 (Homo sapiens, UniProt P12268)
[8] = biological target: Bone morphogenetic protein receptor type-1A (Homo sapiens, UniProt P36894)
Bone morphogenetic protein receptor type-1A, sequence (P36894 whole entry): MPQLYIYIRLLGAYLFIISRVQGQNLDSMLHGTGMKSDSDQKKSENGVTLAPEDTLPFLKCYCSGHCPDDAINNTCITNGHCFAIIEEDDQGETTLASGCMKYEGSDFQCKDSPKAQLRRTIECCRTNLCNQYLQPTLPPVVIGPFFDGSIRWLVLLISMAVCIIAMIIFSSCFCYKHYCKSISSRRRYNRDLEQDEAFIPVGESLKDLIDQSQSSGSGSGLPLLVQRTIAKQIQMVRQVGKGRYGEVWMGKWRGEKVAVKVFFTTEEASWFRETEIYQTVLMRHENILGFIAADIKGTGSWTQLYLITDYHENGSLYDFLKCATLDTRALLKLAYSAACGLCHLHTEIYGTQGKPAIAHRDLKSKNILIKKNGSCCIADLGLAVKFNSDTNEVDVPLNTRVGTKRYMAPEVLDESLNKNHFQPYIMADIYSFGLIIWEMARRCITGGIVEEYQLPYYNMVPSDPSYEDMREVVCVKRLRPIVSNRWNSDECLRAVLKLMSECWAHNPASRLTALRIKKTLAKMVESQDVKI

[9] = biological target: Mitogen-activated protein kinase 3 (Homo sapiens, UniProt P27361)
Mitogen-activated protein kinase 3, sequence (P27361 whole entry): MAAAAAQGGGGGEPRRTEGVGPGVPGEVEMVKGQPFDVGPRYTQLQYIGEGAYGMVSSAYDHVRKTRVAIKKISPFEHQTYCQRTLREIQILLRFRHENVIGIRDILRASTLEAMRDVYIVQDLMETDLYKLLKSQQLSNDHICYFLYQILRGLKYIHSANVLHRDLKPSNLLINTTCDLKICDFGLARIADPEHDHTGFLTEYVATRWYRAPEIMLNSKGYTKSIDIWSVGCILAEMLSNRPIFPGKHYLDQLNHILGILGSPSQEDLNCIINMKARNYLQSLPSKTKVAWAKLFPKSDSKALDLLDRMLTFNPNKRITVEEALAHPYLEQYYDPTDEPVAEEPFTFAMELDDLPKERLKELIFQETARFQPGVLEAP

[10] = biological target: GTP-binding nuclear protein Ran (Homo sapiens, UniProt P62826)
[11] = biological target: Cyclin-dependent kinase 12 (Homo sapiens, UniProt Q9NYV4)
[12] = biological target: T2, Breakpoint cluster region protein (Homo sapiens, UniProt P11274)
T2 sequence (P11274 whole entry): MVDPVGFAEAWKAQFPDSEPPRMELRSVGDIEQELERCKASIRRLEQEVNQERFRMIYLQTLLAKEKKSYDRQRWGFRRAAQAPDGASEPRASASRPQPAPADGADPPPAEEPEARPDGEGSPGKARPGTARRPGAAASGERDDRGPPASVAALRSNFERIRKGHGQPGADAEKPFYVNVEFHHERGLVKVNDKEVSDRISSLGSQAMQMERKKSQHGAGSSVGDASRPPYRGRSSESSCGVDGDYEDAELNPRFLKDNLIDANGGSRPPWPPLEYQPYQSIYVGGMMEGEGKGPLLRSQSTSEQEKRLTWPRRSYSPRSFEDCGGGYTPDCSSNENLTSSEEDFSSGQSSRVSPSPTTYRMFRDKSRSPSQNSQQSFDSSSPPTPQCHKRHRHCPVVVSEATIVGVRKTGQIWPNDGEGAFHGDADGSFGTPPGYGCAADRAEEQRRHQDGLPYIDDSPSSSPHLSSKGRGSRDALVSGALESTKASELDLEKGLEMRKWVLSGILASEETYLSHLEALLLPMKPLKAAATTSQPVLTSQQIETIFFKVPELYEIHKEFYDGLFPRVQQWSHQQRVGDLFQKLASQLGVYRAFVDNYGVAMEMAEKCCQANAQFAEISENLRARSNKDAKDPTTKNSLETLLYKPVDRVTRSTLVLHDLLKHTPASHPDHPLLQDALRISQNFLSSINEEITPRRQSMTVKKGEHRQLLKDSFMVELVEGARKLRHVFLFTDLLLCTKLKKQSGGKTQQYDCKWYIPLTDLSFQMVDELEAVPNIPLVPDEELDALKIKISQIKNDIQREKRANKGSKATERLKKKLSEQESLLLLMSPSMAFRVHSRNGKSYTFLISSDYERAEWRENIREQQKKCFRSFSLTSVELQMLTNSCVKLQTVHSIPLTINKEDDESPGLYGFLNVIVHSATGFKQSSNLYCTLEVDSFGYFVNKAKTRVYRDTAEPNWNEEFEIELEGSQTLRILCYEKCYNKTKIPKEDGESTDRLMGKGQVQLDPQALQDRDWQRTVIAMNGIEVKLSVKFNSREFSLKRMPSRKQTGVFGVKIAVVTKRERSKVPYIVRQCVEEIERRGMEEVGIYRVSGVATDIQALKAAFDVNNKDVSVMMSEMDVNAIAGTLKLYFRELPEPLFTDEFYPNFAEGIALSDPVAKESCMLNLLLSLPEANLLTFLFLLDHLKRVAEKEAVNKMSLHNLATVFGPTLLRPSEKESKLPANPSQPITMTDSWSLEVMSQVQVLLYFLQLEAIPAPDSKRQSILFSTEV

[13] = biological target: Casein kinase I isoform gamma-1 (Homo sapiens, UniProt Q9HCP0)
Casein kinase I isoform gamma-1, sequence (Q9HCP0 whole entry, canonical isoform): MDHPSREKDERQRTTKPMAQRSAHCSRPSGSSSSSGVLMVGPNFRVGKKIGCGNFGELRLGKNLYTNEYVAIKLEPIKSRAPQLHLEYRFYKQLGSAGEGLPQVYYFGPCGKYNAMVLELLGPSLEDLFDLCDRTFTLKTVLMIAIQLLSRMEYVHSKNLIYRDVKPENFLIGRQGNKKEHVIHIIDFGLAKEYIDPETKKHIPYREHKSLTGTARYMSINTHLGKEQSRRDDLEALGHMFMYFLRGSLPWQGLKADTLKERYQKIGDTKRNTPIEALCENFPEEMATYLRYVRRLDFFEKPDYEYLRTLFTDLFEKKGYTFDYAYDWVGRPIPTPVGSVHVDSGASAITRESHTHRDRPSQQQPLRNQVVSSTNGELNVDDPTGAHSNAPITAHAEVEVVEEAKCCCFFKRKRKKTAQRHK

[14] = biological target: Tyrosine-protein kinase JAK1 (Homo sapiens, UniProt P23458)
[15] = biological target: Glycogen synthase kinase-3 alpha (Homo sapiens, UniProt P49840)
Glycogen synthase kinase-3 alpha, sequence (P49840 whole entry): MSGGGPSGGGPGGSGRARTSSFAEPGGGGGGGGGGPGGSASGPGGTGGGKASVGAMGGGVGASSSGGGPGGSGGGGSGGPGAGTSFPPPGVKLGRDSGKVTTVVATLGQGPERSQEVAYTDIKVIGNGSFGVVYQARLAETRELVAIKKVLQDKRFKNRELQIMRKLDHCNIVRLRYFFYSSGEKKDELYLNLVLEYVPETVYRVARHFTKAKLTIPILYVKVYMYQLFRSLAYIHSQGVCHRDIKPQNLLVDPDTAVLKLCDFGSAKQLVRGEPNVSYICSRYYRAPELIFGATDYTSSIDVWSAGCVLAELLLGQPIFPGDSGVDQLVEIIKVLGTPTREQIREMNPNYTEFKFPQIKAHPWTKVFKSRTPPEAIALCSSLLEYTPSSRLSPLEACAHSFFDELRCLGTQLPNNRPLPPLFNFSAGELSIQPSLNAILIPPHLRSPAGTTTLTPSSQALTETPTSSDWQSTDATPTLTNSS

[16] = biological target: Ephrin type-A receptor 4 (Homo sapiens, UniProt P54764)
Ephrin type-A receptor 4, sequence (P54764 whole entry): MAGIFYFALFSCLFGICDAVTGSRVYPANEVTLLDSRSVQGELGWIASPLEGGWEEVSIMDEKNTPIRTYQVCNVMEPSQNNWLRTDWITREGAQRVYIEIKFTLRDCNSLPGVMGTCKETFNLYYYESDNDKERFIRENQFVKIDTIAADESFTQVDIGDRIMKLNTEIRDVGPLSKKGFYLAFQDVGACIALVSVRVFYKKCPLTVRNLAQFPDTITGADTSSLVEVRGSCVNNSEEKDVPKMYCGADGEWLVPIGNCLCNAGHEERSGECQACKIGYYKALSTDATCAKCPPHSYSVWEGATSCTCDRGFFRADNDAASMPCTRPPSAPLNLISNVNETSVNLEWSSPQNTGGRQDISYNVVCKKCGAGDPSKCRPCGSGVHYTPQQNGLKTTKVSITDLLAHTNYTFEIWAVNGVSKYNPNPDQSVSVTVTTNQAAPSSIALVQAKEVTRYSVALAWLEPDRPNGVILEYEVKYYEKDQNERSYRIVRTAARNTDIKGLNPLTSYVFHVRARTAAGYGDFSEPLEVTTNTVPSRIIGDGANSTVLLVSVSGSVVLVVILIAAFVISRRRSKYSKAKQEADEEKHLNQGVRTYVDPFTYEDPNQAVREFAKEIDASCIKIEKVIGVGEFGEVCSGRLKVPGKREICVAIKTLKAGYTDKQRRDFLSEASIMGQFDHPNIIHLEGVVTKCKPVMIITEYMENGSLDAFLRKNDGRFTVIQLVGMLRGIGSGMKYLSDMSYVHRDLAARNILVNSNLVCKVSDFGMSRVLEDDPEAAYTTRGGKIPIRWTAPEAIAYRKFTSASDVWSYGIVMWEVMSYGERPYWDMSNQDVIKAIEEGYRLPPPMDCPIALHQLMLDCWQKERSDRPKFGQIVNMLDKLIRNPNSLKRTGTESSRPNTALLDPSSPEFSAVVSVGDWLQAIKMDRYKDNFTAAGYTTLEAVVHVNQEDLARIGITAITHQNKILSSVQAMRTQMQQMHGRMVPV

[17] = biological target: cAMP-dependent protein kinase type II-alpha regulatory subunit (Homo sapiens, UniProt P13861)
cAMP-dependent protein kinase type II-alpha regulatory subunit, sequence (P13861 whole entry): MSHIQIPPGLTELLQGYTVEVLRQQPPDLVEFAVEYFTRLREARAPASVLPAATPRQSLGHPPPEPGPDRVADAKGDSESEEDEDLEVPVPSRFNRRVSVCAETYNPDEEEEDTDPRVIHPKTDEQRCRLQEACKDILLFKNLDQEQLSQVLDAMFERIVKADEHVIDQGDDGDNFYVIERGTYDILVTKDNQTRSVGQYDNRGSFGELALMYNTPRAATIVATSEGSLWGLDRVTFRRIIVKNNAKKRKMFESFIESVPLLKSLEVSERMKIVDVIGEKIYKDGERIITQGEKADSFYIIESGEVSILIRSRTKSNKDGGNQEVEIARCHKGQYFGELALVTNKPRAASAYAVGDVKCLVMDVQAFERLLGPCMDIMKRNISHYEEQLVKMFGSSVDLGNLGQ

Ribosomal protein S6 kinase alpha-4, sequence (O75676 whole entry): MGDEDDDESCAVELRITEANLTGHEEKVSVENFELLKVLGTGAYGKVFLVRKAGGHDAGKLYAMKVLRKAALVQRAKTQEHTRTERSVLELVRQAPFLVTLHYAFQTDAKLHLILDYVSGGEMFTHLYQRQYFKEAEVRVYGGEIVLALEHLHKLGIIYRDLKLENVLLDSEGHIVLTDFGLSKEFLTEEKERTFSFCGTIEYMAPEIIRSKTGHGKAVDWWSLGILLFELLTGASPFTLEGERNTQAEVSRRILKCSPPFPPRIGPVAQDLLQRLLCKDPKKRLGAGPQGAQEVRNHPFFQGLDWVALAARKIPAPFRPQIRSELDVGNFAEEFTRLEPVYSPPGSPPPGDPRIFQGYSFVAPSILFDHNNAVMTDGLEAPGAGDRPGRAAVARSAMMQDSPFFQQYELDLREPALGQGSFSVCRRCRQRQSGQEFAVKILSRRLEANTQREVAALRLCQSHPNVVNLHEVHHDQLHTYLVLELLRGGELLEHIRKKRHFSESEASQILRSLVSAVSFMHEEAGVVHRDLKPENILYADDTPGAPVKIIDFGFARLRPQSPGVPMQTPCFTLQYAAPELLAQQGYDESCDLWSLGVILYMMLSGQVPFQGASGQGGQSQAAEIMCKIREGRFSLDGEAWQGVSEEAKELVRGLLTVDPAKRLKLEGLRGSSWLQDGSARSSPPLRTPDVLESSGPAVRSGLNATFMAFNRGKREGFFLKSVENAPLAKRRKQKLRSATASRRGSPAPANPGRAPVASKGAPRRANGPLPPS

| Kd [1] | Kd [2] | Kd [3] | Kd [4] | Kd [5] | Kd [6] | Kd [7] | Kd [8] | Kd [9] | Kd [10] | Kd [11] | Kd [12] | Kd [13] | Kd [14] | Kd [15] | Kd [16] | Kd [17] | Structure (SMILES) |
| --- | --- | --- | --- | --- | --- | --- | --- | --- | --- | --- | --- | --- | --- | --- | --- | --- | --- |
| > 30 µM (inactive) | > 30 µM (inactive) | > 30 µM (inactive) | > 30 µM (inactive) | > 30 µM (inactive) | > 30 µM (inactive) | > 30 µM (inactive) | > 30 µM (inactive) | > 30 µM (inactive) | > 30 µM (inactive) | > 30 µM (inactive) | > 30 µM (inactive) | > 30 µM (inactive) | > 30 µM (inactive) | > 30 µM (inactive) | > 30 µM (inactive) |  | Cc1ccc(S(=O)(=O)Nc2nc3ccccc3nc2Nc2ccc3nsnc3c2)cc1 |
| 5.31 µM (active) | > 30 µM (inactive) | > 30 µM (inactive) | > 30 µM (inactive) | > 30 µM (inactive) | > 30 µM (inactive) |  | > 30 µM (inactive) | > 30 µM (inactive) | > 30 µM (inactive) | > 30 µM (inactive) | > 30 µM (inactive) | > 30 µM (inactive) | > 30 µM (inactive) | > 30 µM (inactive) | > 30 µM (inactive) | > 30 µM (inactive) | COc1cc(N2CCC(N3CCN(C)CC3)CC2)ccc1Nc1ncnc(Nc2ccccc2S(=O)(=O)C(C)C)n1 [ASP-3026] |
| > 30 µM (inactive) | > 30 µM (inactive) | > 30 µM (inactive) | > 30 µM (inactive) | > 30 µM (inactive) | > 30 µM (inactive) |  | > 30 µM (inactive) | > 30 µM (inactive) | > 30 µM (inactive) | > 30 µM (inactive) | 0.015 µM (active) | > 30 µM (inactive) | > 30 µM (inactive) | > 30 µM (inactive) | 1.98 µM (active) | > 30 µM (inactive) | Cc1ccc(NC(=O)c2ccc(CN3CC[C@H](N(C)C)C3)c(C(F)(F)F)c2)cc1Nc1nccc(-c2cncnc2)n1 [BAFETINIB] |
| > 30 µM (inactive) | > 30 µM (inactive) | > 30 µM (inactive) | > 30 µM (inactive) | > 30 µM (inactive) | > 30 µM (inactive) |  | > 30 µM (inactive) | > 30 µM (inactive) | > 30 µM (inactive) | > 30 µM (inactive) | > 30 µM (inactive) | > 30 µM (inactive) | > 30 µM (inactive) | > 30 µM (inactive) | > 30 µM (inactive) | > 30 µM (inactive) | Cc1cc2c(F)c(Oc3ncnn4cc(OC[C@@H](C)OC(=O)[C@H](C)N)c(C)c34)ccc2[nH]1 [BRIVANIB ALANINATE] |
| > 30 µM (inactive) | 0.499 µM (active) | > 30 µM (inactive) | > 30 µM (inactive) | > 30 µM (inactive) | > 30 µM (inactive) |  | > 30 µM (inactive) | > 30 µM (inactive) | > 30 µM (inactive) | > 30 µM (inactive) | > 30 µM (inactive) | 17.5 µM (active) | > 30 µM (inactive) | > 30 µM (inactive) | > 30 µM (inactive) | > 30 µM (inactive) | O=C1NC(=O)/C(=C/c2ccc3nccc(-c4ccncc4)c3c2)S1 [GSK-1059615] |
| > 30 µM (inactive) | > 30 µM (inactive) | > 30 µM (inactive) | > 30 µM (inactive) | > 30 µM (inactive) | > 30 µM (inactive) |  | > 30 µM (inactive) | > 30 µM (inactive) | > 30 µM (inactive) | > 30 µM (inactive) | > 30 µM (inactive) | > 30 µM (inactive) | > 30 µM (inactive) | > 30 µM (inactive) | > 30 µM (inactive) | > 30 µM (inactive) | Cn1cc(-c2ccc3nnc(C(F)(F)c4ccc5ncccc5c4)n3n2)cn1 [JNJ-38877605] |
| > 30 µM (inactive) | > 30 µM (inactive) | > 30 µM (inactive) | > 30 µM (inactive) | > 30 µM (inactive) | > 30 µM (inactive) |  | > 30 µM (inactive) | > 30 µM (inactive) | > 30 µM (inactive) | > 30 µM (inactive) | > 30 µM (inactive) | > 30 µM (inactive) | > 30 µM (inactive) | > 30 µM (inactive) | > 30 µM (inactive) |  | CN(C)C(=O)c1cc2cnc(Nc3ccc(N4CCNCC4)cn3)nc2n1C1CCCC1 [RIBOCICLIB] |
| > 30 µM (inactive) | > 30 µM (inactive) | > 30 µM (inactive) | > 30 µM (inactive) | > 30 µM (inactive) |  | > 30 µM (inactive) | > 30 µM (inactive) | > 30 µM (inactive) | > 30 µM (inactive) | > 30 µM (inactive) | > 30 µM (inactive) | > 30 µM (inactive) | > 30 µM (inactive) | > 30 µM (inactive) | > 30 µM (inactive) | > 30 µM (inactive) | C[C@@H](c1ccc2nccn2c1)n1nnc2ncc(-c3cnn(C)c3)nc21 [SAVOLITINIB] |
| > 30 µM (inactive) | > 30 µM (inactive) | > 30 µM (inactive) | > 30 µM (inactive) | > 30 µM (inactive) | > 30 µM (inactive) |  | > 30 µM (inactive) | > 30 µM (inactive) | > 30 µM (inactive) | > 30 µM (inactive) | > 30 µM (inactive) | > 30 µM (inactive) | > 30 µM (inactive) | > 30 µM (inactive) | > 30 µM (inactive) | > 30 µM (inactive) | C[C@@H]1CN(Cc2ccc(F)cc2)[C@@H](C)CN1C(=O)c1cc2c(C(=O)C(=O)N(C)C)cn(C)c2cc1Cl [TALMAPIMOD] |

| Structure (SMILES) | Kd [1] | Kd [2] | Kd [3] | Kd [4] | Kd [5] | Kd [6] | Kd [7] | Kd [8] | Kd [9] | Kd [10] | Kd [11] | Kd [12] | Kd [13] | Kd [14] | Kd [15] | Kd [16] | Kd [17] |
| --- | --- | --- | --- | --- | --- | --- | --- | --- | --- | --- | --- | --- | --- | --- | --- | --- | --- |
| C=CC(=O)N1CCC(Oc2cc3c(Nc4ccc(Cl)c(Cl)c4F)ncnc3cc2OC)CC1 [POZIOTINIB] | > 30 µM (inactive) | > 30 µM (inactive) | > 30 µM (inactive) | > 30 µM (inactive) | > 30 µM (inactive) | > 30 µM (inactive) |  | > 30 µM (inactive) | > 30 µM (inactive) | > 30 µM (inactive) | > 30 µM (inactive) | > 30 µM (inactive) | > 30 µM (inactive) | > 30 µM (inactive) | > 30 µM (inactive) | 7.06 µM (active) |  |
